Reference: patent publication US20070082908A1, “Bicycle pyrazole derivative” (DAINIPPON SUMITOMO PHARMA CO., LTD., priority 2003, published 2007)
Structures can show the parent of a compound that is named as a salt.

The compounds below were run against T1, human DPP IV (Homo sapiens, UniProt P27487) (assay: In vitro DPP-IV inhibitory effect measurement test (human serum, fluorogenic substrate Gly-Pro-MCA)). Conditions: human serum diluted 10-fold as enzyme source; substrate Glycyl-L-Proline 4-Methyl-Coumaryl-7-Amide 100 μM; room temperature; read-out: Inhibitory activity against human DPP IV IC50.
T1 construct: Human serum containing DPP-IV enzyme was used in an experiment after being diluted with assay buffer; from tissue; host or cells: human serum (diluted 10-fold)
T1 sequence (P27487 39-766 limits assumed): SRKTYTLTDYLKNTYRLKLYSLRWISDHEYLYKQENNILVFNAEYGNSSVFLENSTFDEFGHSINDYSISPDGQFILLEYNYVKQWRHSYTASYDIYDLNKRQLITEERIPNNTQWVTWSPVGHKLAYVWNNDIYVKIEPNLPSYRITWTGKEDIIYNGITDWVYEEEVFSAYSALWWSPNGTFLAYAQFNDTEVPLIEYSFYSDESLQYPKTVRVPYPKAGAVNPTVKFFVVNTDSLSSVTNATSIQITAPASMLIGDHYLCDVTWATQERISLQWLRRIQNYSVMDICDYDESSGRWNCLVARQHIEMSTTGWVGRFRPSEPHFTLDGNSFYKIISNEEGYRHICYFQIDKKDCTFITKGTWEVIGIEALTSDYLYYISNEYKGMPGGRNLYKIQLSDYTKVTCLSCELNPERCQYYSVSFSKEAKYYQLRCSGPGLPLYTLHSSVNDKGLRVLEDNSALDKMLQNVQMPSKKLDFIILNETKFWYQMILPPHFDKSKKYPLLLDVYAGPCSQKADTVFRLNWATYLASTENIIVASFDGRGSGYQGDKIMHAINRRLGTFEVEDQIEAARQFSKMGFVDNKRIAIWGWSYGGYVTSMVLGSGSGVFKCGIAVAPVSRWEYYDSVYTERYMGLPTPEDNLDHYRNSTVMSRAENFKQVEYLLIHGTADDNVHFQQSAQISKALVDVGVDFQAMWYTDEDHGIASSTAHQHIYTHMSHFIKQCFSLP
Format: biochemical
Procedure: In Vitro DPP-IV Inhibitory Effect Measurement Test
Human serum containing DPP-IV enzyme was used in an experiment after being diluted with assay buffer (25 mM Tris-HCl, 140 mM NaCl, 10 mM KCl, pH 7.9) (finally, diluted 10-fold). Each of solutions of each test compound having various concentrations was added to the diluted serum and the resulting mixture was incubated at room temperature. Then, a substrate (Glycyl-L-Proline 4-Methyl-Coumaryl-7-Amide, Peptide Laboratories Co., Ltd.) was added thereto to a final concentration of 100 μM and the reaction was carried out at room temperature. Acetic acid was added to the reaction mixture to a final concentration of 12.5% to terminate the reaction, and the intensity of fluorescence at an excitation wavelength of 360 nm and a measuring wavelength of 460 nm was measured by the use of a fluorescent plate reader. A compound concentration for 50% inhibition was calculated as an IC50 value from enzyme inhibitory activity values obtained by adding each test compound to a plurality of concentrations.

SMILES | IC50
N[C@@H]1CCCN(c2nn3ccn(CCc4ccccc4)c(=O)c3c2Cc2ccccc2Cl)C1 [Example 14] | 61 nM
Cn1ncn2nc(N3CCC[C@@H](N)C3)c(Cc3ccccc3Cl)c2c1=O [Example 33, 2-[(3R)-3-Aminopiperidin-1-yl]-3-(2-chlorobenzyl)-5-methylpyrazolo[1,5-d][1,2,4]triazin-4(5H)-one hydrochloride] | 12 nM
N[C@@H]1CCCN(c2nn3cc[nH]c(=O)c3c2Cc2ccccc2Cl)C1 [Example 3, 2-[(3R)-3-Aminopiperidin-1-yl]-3-(2-chlorobenzyl)pyrazolo[1,5-a]pyrazin-4(5H)-one hydrochloride] | 30 nM
CCc1cn2nc(N3CCC[C@@H](N)C3)c(Cc3ccccc3Cl)c2c(=O)n1CC(=O)c1ccccc1 [Example 26] | 28 nM
N[C@@H]1CCCN(c2nn3ccn(CC(=O)c4ccccc4)c(=O)c3c2Cc2ccccc2Cl)C1 [Example 8, 2-[(3R)-3-Aminopiperidin-1-yl]-3-(2-chlorobenzyl)-5-(2-oxo-2-phenylethyl)pyrazolo[1,5-a]pyrazin-4(5H)-one hydrochloride] | 7 nM
COC(=O)c1[nH]c(=O)c2c(Cc3ccccc3Cl)c(N3CCC[C@@H](N)C3)nn2c1C [Example 1, Methyl 2-[(3R)-3-aminopiperidin-1-yl]-3-(2-chlorobenzyl)-7-methyl-4-oxo-4,5-dihydropyrazolo[1,5-a]pyrazine-6-carboxylate hydrochloride] | 20 nM
N#Cc1ccccc1Cn1ccn2nc(N3CCC[C@@H](N)C3)c(Cc3ccccc3Cl)c2c1=O [Example 12] | 24 nM
CC(C)Oc1cccc(C(=O)Cn2ccn3nc(N4CCC[C@@H](N)C4)c(Cc4ccccc4Cl)c3c2=O)c1 [Example 11] | 25 nM
N[C@@H]1CCCN(c2nn3cc(-c4ccccc4)[nH]c(=O)c3c2Cc2ccccc2Cl)C1 [Example 5, 2-[(3R)-3-Aminopiperidin-1-yl]-3-(2-chlorobenzyl)-6-phenylpyrazolo[1,5-a]pyrazin-4(5H)-one hydrochloride] | 82 nM
COc1ccccc1C(=O)Cn1ccn2nc(N3CCC[C@@H](N)C3)c(Cc3ccccc3Cl)c2c1=O [Example 9] | 71 nM
Cc1c(C)n2nc(N3CCC[C@@H](N)C3)c(Cc3ccccc3Cl)c2c(=O)n1CC(=O)c1ccccc1 [Example 18] | 45 nM
COC(=O)Cc1c(C(=O)OC)[nH]c(=O)c2c(Cc3ccccc3Cl)c(N3CCC[C@@H](N)C3)nn12 [Example 38, Methyl 2-[(3R)-3-aminopiperidin-1-yl]-3-(2-chlorobenzyl)-7-(2-methoxy-2-oxoethyl)-4-oxo-4,5-dihydropyrazolo[1,5-a]pyrazine-6-carboxylate hydrochloride] | 9.6 nM
N[C@@H]1CCCN(c2nn3cn[nH]c(=O)c3c2Cc2ccccc2Cl)C1 [Example 19] | 15 nM
Cn1c(C(N)=O)cn2nc(N3CCC[C@@H](N)C3)c(Cc3ccccc3Cl)c2c1=O [Example 21] | 13 nM
Cc1cn2nc(N3CCC[C@@H](N)C3)c(Cc3ccccc3Cl)c2c(=O)n1C [Example 4, 2-[(3R)-3-Aminopiperidin-1-yl]-3-(2-chlorobenzyl)-5,6-dimethylpyrazolo[1,5-a]pyrazin-4(5H)-one hydrochloride] | 37 nM

Stronger by IC50, values ahead:

IC50 | SMILES
6.1 nM | COc1cccc(C(=O)Cn2ccn3nc(N4CCC[C@@H](N)C4)c(Cc4ccccc4Cl)c3c2=O)c1 [Example 13]
5 nM | Cn1c(C#N)cn2nc(N3CCC[C@@H](N)C3)c(Cc3ccccc3Cl)c2c1=O [Example 20]
2.8 nM | N[C@@H]1CCCN(c2nn3ccn(Cc4nccc5ccccc45)c(=O)c3c2Cc2ccccc2Cl)C1 [Example 10]
2.8 nM | N[C@@H]1CCCN(c2nn3cnn(CC(=O)c4ccccc4)c(=O)c3c2Cc2ccccc2Cl)C1 [Example 34, 2-[(3R)-3-Aminopiperidin-1-yl]-3-(2-chlorobenzyl)-5-(2-oxo-2-phenylethyl)pyrazolo[1,5-d][1,2,4]triazin-4(5H)-one hydrochloride]
2.5 nM | COC(=O)c1cn2nc(N3CCC[C@@H](N)C3)c(Cc3ccccc3Cl)c2c(=O)[nH]1 [Example 16]
2.3 nM | N[C@@H]1CCCN(c2nn3cnn(Cc4nccc5ccccc45)c(=O)c3c2Cc2ccccc2Cl)C1 [Example 35, 2-[(3R)-3-Aminopiperidin-1-yl]-3-(2-chlorobenzyl)-5-(isoquinolin-1-ylmethyl)pyrazolo[1,5-d][1,2,4]triazin-4(5H)-one hydrochloride]
2.1 nM | CCOC(=O)c1cn2nc(N3CCC[C@@H](N)C3)c(Cc3ccccc3Cl)c2c(=O)[nH]1 [Example 41, Ethyl 2-[(3R)-3-aminopiperidin-1-yl]-3-(2-chlorobenzyl)-4-oxo-4,5-dihydropyrazolo[1,5-a]pyrazine-6-carboxylate hydrochloride]
1.6 nM | N[C@@H]1CCCN(c2nn3cc(C(=O)O)[nH]c(=O)c3c2Cc2ccccc2Cl)C1 [Example 17]
0.9 nM | CCOC(=O)c1cn2nc(N3CCC[C@@H](N)C3)c(Cc3cc(F)ccc3Cl)c2c(=O)[nH]1 [Example 32, Ethyl 2-[(3R)-3-aminopiperidin-1-yl]-3-(2-chloro-5-fluorobenzyl)-4-oxo-4,5-dihydropyrazolo[1,5-a]pyrazine-6-carboxylate methanesulfonate]
0.7 nM | N[C@@H]1CCCN(c2nn3cc(C(=O)O)[nH]c(=O)c3c2Cc2cc(F)ccc2Cl)C1 [Example 7, 2-[(3R)-3-Aminopiperidin-1-yl]-3-(2-chloro-5-fluorobenzyl)-4-oxo-4,5-dihydropyrazolo[1,5-a]pyrazine-6-carboxylic acid methanesulfonate]
